What was measured:
[1] = system: DU-145 cells; assay: MTT cytotoxicity assay, DU-145 cells; type: cell-based; settings: for SI (DU-145): SI = IC50 of FL83B/IC50 on DU-145; for IC50: Homo sapiens, DU-145, MTT assay, 24 h, 1–100 µM, 95% confidence interval in parentheses
Excerpt: (§1) Three malignant cell lines (between passages 10 and 25) obtained from the DMSZ-German Collection of Microorganisms and Cell Cultures GmbH biobank were used: A549 (lung carcinoma), DU-145 (prostate carcinoma), and MCF-7 (breast adenocarcinoma). MCF-7 (ACC-115) and DU-145 (ACC-261) cells were maintained in RPMI 1640 medium (Merck, Darmstadt, Germany) supplemented with 10% FBS (fetal bovine serum, Biowest, Riverside, MO, USA) and 1% antimycotic and antibiotic solution (Biowest, Nuaillé, France). A549 (ACC-107) cells were maintained in DMEM:F12 medium (Merck, Darmstadt, Germany) and also supplemented with 10% FBS (Biowest, Riverside, MO, USA) and a 1% solution of antimycotic and antibiotic (Biowest, Nuaillé, France). FL83B hepatocytes (FL83B; ATCC: CLR-2390) were used as the non-malignant cell line. The cells were cultured in F-12K medium supplemented with FBS 10% (Biowest, Riverside, MO, USA) and 1% solution of antimycotic and antibiotic (Biowest, Nuaillé, France).
(§2) The effects of sphaerococcenol A and its analogues (1–6) on the viability of malignant cell lines were studied through three distinct assays, 3-(4,5-dimethylthiazol-2-yl)-2,5-diphenyltetrazolium bromide (MTT), lactate dehydrogenase (LDH) activity, and calcein-AM, targeting different cellular biomarkers. Untreated cells with DMSO (<0.2%) were used as control, and saponin (0.4 mg/mL) (Sigma, Darmstadt, Germany) was used as the positive control for cell death.
(§3) The cells were incubated with compounds at different concentrations (1–100 µM) for 24 h. After the 24 h was over, cells were washed with PBS buffer (pH = 7.4) and incubated for 60 min with the MTT solution (1.2 mM) previously prepared in a fresh medium. The MTT solution was then removed, and 100 µL of dimethyl sulfoxide (DMSO) was added to dissolve the formazan crystals. The results were expressed as the half-maximal inhibitory concentration (IC50) after reading the absorbance at 570 nm using a microplate reader (Synergy H1, BioTek Instruments, USA). The selectivity index (SI) was calculated as the ratio of the IC50 value for a normal cell line to the IC50 value for the corresponding tumor cell line (SI = IC50 of non-malignant cell line/IC50 of malignant cell line), where an SI ≥ 2 of a compound represents a selective toxicity towards malignant cells, while an SI value < 2 is considered generally toxic.
(§4) The data were obtained from at least three independent experiments (n = 3) carried out in triplicate and presented as mean ± standard error of the mean (SEM). The data were checked for normality and homoscedasticity. […] A one-way analysis of variance (ANOVA) with Dunnett′s multiple comparison of group means was employed to determine significant differences to the control treatment and/or a two-way ANOVA with Bonferroni’s test. All other post hoc analyses were conducted using Tukey’s test. The differences were considered significant at a level of 0.05 (p < 0.05). The inhibitory concentrations (IC50) were determined by means of the equation y = 100/(1 + 10(x − logIC50)). All data were analyzed using the software SPSS v28.0.0.0 (SPSS Inc., Chicago, IL, USA) and GraphPad v8.0.2 (GraphPad Software, Inc., La Jolla, CA, USA).

[2] = system: MCF-7 cells; assay: MTT cytotoxicity assay, MCF-7 cells; type: cell-based; settings: for IC50: MTT assay, 24 h, 1–100 µM, 95% confidence interval in parentheses; for SI (MCF-7): SI = IC50 of FL83B/IC50 on MCF-7
Excerpt: as §1, §2, §3, §4

[3] = system: A549 cells; assay: MTT cytotoxicity assay, A549 cells; type: cell-based; settings: for IC50: MTT assay, 24 h, 1–100 µM, 95% confidence interval in parentheses; for SI (A549): SI = IC50 of FL83B/IC50 on A549
Excerpt: as §1, §2, §3, §4

[4] = system: FL83B hepatocytes; assay: MTT cytotoxicity assay, non-malignant FL83B hepatocytes; type: cell-based; settings: non-malignant cell line, 24 h, 1–100 µM, 95% confidence interval in parentheses
Excerpt: Three malignant cell lines (between passages 10 and 25) obtained from the DMSZ-German Collection of Microorganisms and Cell Cultures GmbH biobank were used: A549 (lung carcinoma), DU-145 (prostate carcinoma), and MCF-7 (breast adenocarcinoma). MCF-7 (ACC-115) and DU-145 (ACC-261) cells were maintained in RPMI 1640 medium (Merck, Darmstadt, Germany) supplemented with 10% FBS (fetal bovine serum, Biowest, Riverside, MO, USA) and 1% antimycotic and antibiotic solution (Biowest, Nuaillé, France). A549 (ACC-107) cells were maintained in DMEM:F12 medium (Merck, Darmstadt, Germany) and also supplemented with 10% FBS (Biowest, Riverside, MO, USA) and a 1% solution of antimycotic and antibiotic (Biowest, Nuaillé, France). FL83B hepatocytes (FL83B; ATCC: CLR-2390) were used as the non-malignant cell line. The cells were cultured in F-12K medium supplemented with FBS 10% (Biowest, Riverside, MO, USA) and 1% solution of antimycotic and antibiotic (Biowest, Nuaillé, France). […]
as §3, with “After the 24 h was over, cells were washed with PBS buffer (pH = 7.4) and incubated for 60 min with the MTT solution (1.2 mM) previously prepared in a fresh medium. The MTT solution was then removed, and 100 µL of dimethyl sulfoxide (DMSO) was added to dissolve the formazan crystals.” left out
The data were obtained from at least three independent experiments (n = 3) carried out in triplicate and presented as mean ± standard error of the mean (SEM). […] The inhibitory concentrations (IC50) were determined by means of the equation y = 100/(1 + 10(x − logIC50)). All data were analyzed using the software SPSS v28.0.0.0 (SPSS Inc., Chicago, IL, USA) and GraphPad v8.0.2 (GraphPad Software, Inc., La Jolla, CA, USA).

[5] = system: A549, DU-145, and MCF-7 malignant cells; assay: MTT cytotoxicity assay, stated across the three malignant cell lines; type: cell-based; settings: SI = IC50 of FL83B/IC50 of malignant cell line; over A549, DU-145, MCF-7
Excerpt: Three malignant cell lines (between passages 10 and 25) obtained from the DMSZ-German Collection of Microorganisms and Cell Cultures GmbH biobank were used: A549 (lung carcinoma), DU-145 (prostate carcinoma), and MCF-7 (breast adenocarcinoma). MCF-7 (ACC-115) and DU-145 (ACC-261) cells were maintained in RPMI 1640 medium (Merck, Darmstadt, Germany) supplemented with 10% FBS (fetal bovine serum, Biowest, Riverside, MO, USA) and 1% antimycotic and antibiotic solution (Biowest, Nuaillé, France). […]
as §3, with “After the 24 h was over, cells were washed with PBS buffer (pH = 7.4) and incubated for 60 min with the MTT solution (1.2 mM) previously prepared in a fresh medium. The MTT solution was then removed, and 100 µL of dimethyl sulfoxide (DMSO) was added to dissolve the formazan crystals.” left out
The data were obtained from at least three independent experiments (n = 3) carried out in triplicate and presented as mean ± standard error of the mean (SEM). […] The inhibitory concentrations (IC50) were determined by means of the equation y = 100/(1 + 10(x − logIC50)). […]

[6] = system: U373 cells; parameters: method as in PMID 20045651; settings: inhibiting the cell entry into the mitosis phase; cited from earlier work
[7] = system: MCF-7 cells; parameters: method as in PMID 35378501; settings: previous studies; cited from earlier work

## CCCSC1CC(=O)[C@@](C)(O)[C@H]2[C@@H]3C=CC[C@@H](C(C)C)[C@@]3(CBr)CC[C@]12C (single isomer, unassigned) [Compound 2]
[1]
  SI (DU-145): 1.9
[2]
  IC50: 70.3 µM
  SI (MCF-7): 0.7
[3]; Homo sapiens, A549, 24 h
  IC50: 33.8 µM
[3]
  SI (A549): 1.4

## CCCSC1CC(=O)[C@@](C)(O)[C@H]2[C@@H]3C=CC[C@@H](C(C)C)[C@@]3(CBr)CC[C@]12C (single isomer, unassigned) [Compound 3]
[1]
  SI (DU-145): 2.8
[4]
  IC50: 56.7 µM
[2]
  IC50: 14.3 µM
  SI (MCF-7): 4.0
[3]
  IC50: 22.5 µM
  SI (A549): 2.5

## CC(C)[C@@H]1CC=C[C@H]2[C@@H]3[C@](C)(O)C(=O)CC(SCc4ccccc4)[C@@]3(C)CC[C@]12CBr (stereo partly drawn) [Compound 4, (4S,4aS,4bS,8S,8aS,10aS)-1-(Benzylthio)-8a-(bromomethyl)-4-hydroxy-8-isopropyl-4,10a-dimethyl-1,4,4a,4b,7,8,8a,9,10,10a-decahydrophenanthren-3(2H)-one]
[5]
  selectivity index across the malignant cell lines: 0.6–1.3
[1]
  IC50: 70.1 µM
  SI (DU-145): 0.6
[4]
  IC50: 40.3 µM
[2]
  SI (MCF-7): 1.3
[3]; Homo sapiens, A549, 24 h
  IC50: 35.5 µM
[3]
  SI (A549): 1.1

## CC(C)C1CC=CC2C3C(C)(CCC(O)C3(C)O)CCC21CBr (stereo not drawn) [Compound 5]
[1]
  SI (DU-145): 4.4
[2]
  SI (MCF-7): 2.6
[3]
  SI (A549): 3.7

## CC(C)C1CC=CC2C3C(C)(CCC(O)C3(C)O)CCC21CBr (stereo not drawn) [Compound 6]
[1]
  SI (DU-145): 3.1
[2]
  SI (MCF-7): 2.9
[3]
  SI (A549): 1.9

## CC(C)[C@@H]1CC=C[C@H]2[C@H]3[C@@](C)(C=CC(=O)[C@@]3(C)O)CC[C@]12CBr [Sphaerococcenol A]
[6]
  effect on human apoptosis-resistant U373 cells: cytostatic effect
[1]
  IC50: 3.75 µM
  SI (DU-145): 10.0
[4]
  IC50: 37.4 µM
[7]
  events accompanying decrease in MCF-7 cell viability: production of hydrogen peroxide, changes in mitochondrial membrane potential, the stimulation of Caspase-9 activity, and nuclear morphology alterations
[2]; Homo sapiens, MCF7, 24 h
  IC50: 6.53 µM
[2]
  SI (MCF-7): 5.7
[3]; Homo sapiens, A549, 24 h
  IC50: 15 µM
[3]
  SI (A549): 2.5

Source: PMC11432771, “Sphaerococcenol A Derivatives: Design, Synthesis, and Cytotoxicity” (Marine Drugs, 2024)
